We go through 15 compounds from ChEMBL document CHEMBL3044913, “Synthesis, in vitro cytotoxicity, and antibacterial studies of new asymmetric bis-1,2,4-triazoles” (Med Chem Res, 2013).

Assay [1] deals with Radical scavenging activity. Description: Antioxidant activity assessed as DPPH radical scavenging activity at 40 ug/ml after 30 min. The format is functional. (DPPH is a stable violet radical that fades when it is reduced.)
Assay [2] deals with Staphylococcus aureus. Description: Antibacterial activity against Staphylococcus aureus ATCC 25923 assessed as growth inhibition after 24 hr by two-fold serial dilution method. The format is functional. The following applies: ATCC 25923, 24 h.
Assay [3] has as its system Escherichia coli. The assay can be described thus: Antibacterial activity against Escherichia coli ATCC 25922 assessed as growth inhibition after 24 hr by two-fold serial dilution method. The note with it: ATCC 25922, 24 h. The class given is functional.
Assay [4] relates to Escherichia coli. Description: Antibacterial activity against Escherichia coli ATCC 25922 assessed as diameter of growth inhibition zone at 100 ug/ml after 24 hr by cup-plate method. The class given is functional. The following applies: ATCC 25922, 24 h, read-out: DIZ.
The next assay concerns HT-29. Description: Cytotoxicity against Homo sapiens (human) HT-29 cells assessed as inhibition of cell growth after 48 hr by MTT assay. The note with it: HT-29, 48 h. The format is functional, cell-based.
Assay [5] has as its system Bacillus subtilis. The assay can be described thus: Antibacterial activity against Bacillus subtilis ATCC 6633 assessed as diameter of growth inhibition zone at 100 ug/ml after 24 hr by cup plate method. The following applies: ATCC 6633, 24 h, read-out: DIZ. The format is functional.
Assay [6] relates to Bacillus subtilis. Description: Antibacterial activity against Bacillus subtilis ATCC 6633 assessed as growth inhibition after 24 hr by two-fold serial dilution method. The class given is functional. The following applies: ATCC 6633, 24 h.
The test system of assay [7] is Pseudomonas aeruginosa. Description: Antibacterial activity against Pseudomonas aeruginosa ATCC 27853 assessed as diameter of growth inhibition zone at 100 ug/ml after 24 hr by cup-plate method. The format is functional. The following applies: ATCC 27853, 24 h, read-out: DIZ.
A short description of assay [8]: Cytotoxicity against Homo sapiens (human) MDA231 cells assessed as inhibition of cell growth after 48 hr by MTT assay. The following applies: MDA-MB-231, 48 h. The format is functional, cell-based. Background: Formazan colour is commonly taken as a measure of viable cells.
The subject of assay [9] is Pseudomonas aeruginosa. Description: Antibacterial activity against Pseudomonas aeruginosa ATCC 27853 assessed as growth inhibition after 24 hr by two-fold serial dilution method. The class given is functional. The following applies: ATCC 27853, 24 h.
In assay [10] the test system is Staphylococcus aureus. The assay can be described thus: Antibacterial activity against Staphylococcus aureus ATCC 25923 assessed as diameter of growth inhibition zone at 100 ug/ml after 24 hr by cup-plate method. The class given is functional. The note with it: ATCC 25923, 24 h, read-out: DIZ.

Values after ≈ are worked out from the molar mass of the structure shown.

As to `O=C1O[C@H]([C@@H](O)CO)C(O)=C1O`, the Activity in assay [1] was 94%.

Regarding `Sc1nnc(CSc2nnc(-c3ccccc3)n2-c2ccccc2)n1-c1ccc(Cl)cc1`, the MIC stood at 50 µg/mL (≈ 105 µM) in the assay on Staphylococcus aureus [2], 50 µg/mL (≈ 105 µM) with Escherichia coli [3], 25 µg/mL (≈ 52.4 µM) with Bacillus subtilis [6] and 100 µg/mL (≈ 210 µM) in the assay on Pseudomonas aeruginosa [9]. For the same compound, the zone of inhibition at 100 µg/mL with Escherichia coli [4], with Bacillus subtilis [5], in the assay on Pseudomonas aeruginosa [7] and in the assay on Staphylococcus aureus [10] was 16 mm throughout. In addition, the IC50 in the assay with HT-29 came to 36.6 µM; in [8] it was 50.3 µM. Moreover, the Activity in assay [1] was found to be 65%.

Turning to `O=c1[nH]cc(F)c(=O)[nH]1` [FLUOROURACIL], the IC50 with HT-29 was found to be 3.24 µM; in [8], 2.72 µM.

Take `CC1(C)S[C@@H]2[C@H](NC(=O)[C@H](N)c3ccccc3)C(=O)N2[C@H]1C(=O)O` [AMPICILLIN]: the MIC in the assay with Staphylococcus aureus [2], in the assay with Escherichia coli [3], in the assay on Bacillus subtilis [6] and with Pseudomonas aeruginosa [9] was < 6.25 µg/mL each time. Also, the zone of inhibition at 100 µg/mL in the assay on Escherichia coli [4], in the assay on Bacillus subtilis [5], in the assay on Pseudomonas aeruginosa [7] and with Staphylococcus aureus [10] was 28 mm each time.

For the compound `Fc1ccc(-n2c(S)nnc2Sc2nnc(-c3ccccc3)n2-c2ccccc2)cc1`, the MIC stood at 25 µg/mL (≈ 56 µM) with Staphylococcus aureus [2], 50 µg/mL (≈ 112 µM) in the assay on Escherichia coli [3], 25 µg/mL (≈ 56 µM) with Bacillus subtilis [6] and 50 µg/mL (≈ 112 µM) with Pseudomonas aeruginosa [9]. The zone of inhibition at 100 µg/mL in the assay on Escherichia coli [4], with Bacillus subtilis [5], with Pseudomonas aeruginosa [7] and with Staphylococcus aureus [10] was 16 mm in each case. For the same compound, the IC50 with HT-29 is 32.8 µM; in [8], 29.7 µM. Moreover, the Activity in assay [1] was determined as 60%.

For the compound `COc1ccc(-n2c(S)nnc2Sc2nnc(-c3ccccc3)n2-c2ccccc2)cc1`, the MIC in the assay on Staphylococcus aureus [2], with Escherichia coli [3], in the assay with Bacillus subtilis [6] and with Pseudomonas aeruginosa [9] was 100 µg/mL (≈ 218 µM) each time. The zone of inhibition at 100 µg/mL in the assay with Escherichia coli [4], in the assay with Bacillus subtilis [5], in the assay on Pseudomonas aeruginosa [7] and in the assay on Staphylococcus aureus [10] was 5 mm throughout. Further, the Activity in [1] was found to be 28%.

In the case of `CCOc1ccc(-n2c(S)nnc2CSc2nnc(-c3ccccc3)n2-c2ccccc2)cc1`, the MIC in the assay on Staphylococcus aureus [2], with Escherichia coli [3], in the assay on Bacillus subtilis [6] and with Pseudomonas aeruginosa [9] was 100 µg/mL (≈ 205 µM) each time. Besides, the zone of inhibition at 100 µg/mL with Escherichia coli [4], in the assay on Bacillus subtilis [5], in the assay with Pseudomonas aeruginosa [7] and in the assay on Staphylococcus aureus [10] was 5 mm in each case. In addition, the Activity in [1] was 34%.

`CCOc1ccc(-n2c(S)nnc2Sc2nnc(-c3ccccc3)n2-c2ccccc2)cc1`: the MIC with Staphylococcus aureus [2], in the assay on Escherichia coli [3], in the assay on Bacillus subtilis [6] and with Pseudomonas aeruginosa [9] was 100 µg/mL (≈ 212 µM) in each case. The zone of inhibition at 100 µg/mL in the assay on Escherichia coli [4], in the assay on Bacillus subtilis [5], in the assay on Pseudomonas aeruginosa [7] and in the assay with Staphylococcus aureus [10] was 5 mm each time. Further, the IC50 was found to be 46.8 µM in the assay on HT-29 and 43.9 µM in [8]. Also, in assay [1], the Activity was determined as 59%.

On to `Sc1nnc(CSc2nnc(-c3ccccc3)n2-c2ccccc2)n1-c1ccccc1`, for which the MIC with Staphylococcus aureus [2] worked out at 12.5 µg/mL (≈ 28.2 µM); with Escherichia coli [3], 25 µg/mL (≈ 56.5 µM); in the assay with Bacillus subtilis [6] it was 12.5 µg/mL (≈ 28.2 µM); in the assay on Pseudomonas aeruginosa [9], 50 µg/mL (≈ 113 µM). Further, the zone of inhibition at 100 µg/mL in the assay with Escherichia coli [4], with Bacillus subtilis [5], in the assay on Pseudomonas aeruginosa [7] and in the assay with Staphylococcus aureus [10] was 16 mm throughout. Besides, the IC50 in the assay with HT-29 worked out at 5.49 µM; in assay [8], 8.57 µM. For the same compound, the Activity in [1] stood at 85%.

On to `Fc1ccc(-n2c(S)nnc2CSc2nnc(-c3ccccc3)n2-c2ccccc2)cc1`, for which the MIC in the assay on Staphylococcus aureus [2] came to 25 µg/mL (≈ 54.3 µM); with Escherichia coli [3], 25 µg/mL (≈ 54.3 µM); in the assay on Bacillus subtilis [6] it was 12.5 µg/mL (≈ 27.1 µM); in the assay on Pseudomonas aeruginosa [9], 12.5 µg/mL (≈ 27.1 µM). Further, the zone of inhibition at 100 µg/mL in the assay on Escherichia coli [4], with Bacillus subtilis [5], in the assay with Pseudomonas aeruginosa [7] and with Staphylococcus aureus [10] was 21 mm in each case. In addition, the results for the IC50 (with HT-29; in assay [8]) were 16.7 µM and 26.8 µM, respectively. In [1], the Activity was 72%.

`CC(C)n1c(S)nnc1Sc1nnc(-c2ccccc2)n1-c1ccccc1`: the MIC in the assay on Staphylococcus aureus [2], in the assay on Escherichia coli [3], in the assay on Bacillus subtilis [6] and in the assay on Pseudomonas aeruginosa [9] was 100 µg/mL (≈ 253 µM) throughout. The zone of inhibition at 100 µg/mL in the assay on Escherichia coli [4], with Bacillus subtilis [5], with Pseudomonas aeruginosa [7] and in the assay with Staphylococcus aureus [10] was 5 mm in each case. In addition, the Activity in assay [1] turned out to be 39%.

As for `COc1ccc(-n2c(S)nnc2CSc2nnc(-c3ccccc3)n2-c2ccccc2)cc1`, the MIC stood at 25 µg/mL (≈ 52.9 µM) in the assay on Staphylococcus aureus [2], 50 µg/mL (≈ 106 µM) in the assay with Escherichia coli [3], 50 µg/mL (≈ 106 µM) in the assay with Bacillus subtilis [6] and 100 µg/mL (≈ 212 µM) with Pseudomonas aeruginosa [9]. For the same compound, the zone of inhibition at 100 µg/mL with Escherichia coli [4], in the assay on Bacillus subtilis [5], in the assay with Pseudomonas aeruginosa [7] and in the assay on Staphylococcus aureus [10] was 21 mm each time. Also, the figures for the IC50 (in the assay on HT-29; in [8]) were 27.7 µM and 29.2 µM, respectively. The Activity in assay [1] amounted to 63%.

On to `Sc1nnc(Sc2nnc(-c3ccccc3)n2-c2ccccc2)n1-c1ccc(Cl)cc1`, for which the MIC turned out to be 12.5 µg/mL (≈ 27 µM) with Staphylococcus aureus [2], 12.5 µg/mL (≈ 27 µM) in the assay with Escherichia coli [3], 25 µg/mL (≈ 54 µM) with Bacillus subtilis [6] and 25 µg/mL (≈ 54 µM) in the assay on Pseudomonas aeruginosa [9]. In addition, the zone of inhibition at 100 µg/mL with Escherichia coli [4], with Bacillus subtilis [5], in the assay with Pseudomonas aeruginosa [7] and in the assay on Staphylococcus aureus [10] was 16 mm throughout. Moreover, the IC50 in the assay on HT-29 is 38.4 µM; in [8], 49.7 µM. In addition, the Activity in assay [1] worked out at 64%.

`Sc1nnc(Sc2nnc(-c3ccccc3)n2-c2ccccc2)n1-c1ccccc1`: the MIC in the assay with Staphylococcus aureus [2], with Escherichia coli [3], in the assay with Bacillus subtilis [6] and with Pseudomonas aeruginosa [9] was 100 µg/mL (≈ 233 µM) in each case. For the same compound, the zone of inhibition at 100 µg/mL with Escherichia coli [4], with Bacillus subtilis [5], with Pseudomonas aeruginosa [7] and in the assay with Staphylococcus aureus [10] was 5 mm in each case. The IC50 in the assay on HT-29 was determined as 28.3 µM; in [8], 34.6 µM. The Activity in assay [1] is 63%.

On to `CC(C)n1c(S)nnc1CSc1nnc(-c2ccccc2)n1-c1ccccc1`, for which the MIC in the assay with Staphylococcus aureus [2], in the assay with Escherichia coli [3], in the assay with Bacillus subtilis [6] and with Pseudomonas aeruginosa [9] was 100 µg/mL (≈ 245 µM) in each case. Moreover, the zone of inhibition at 100 µg/mL in the assay with Escherichia coli [4], in the assay on Bacillus subtilis [5], in the assay on Pseudomonas aeruginosa [7] and in the assay with Staphylococcus aureus [10] was 5 mm throughout. Moreover, the Activity in [1] was determined as 42%.

Broadly, the MIC is the lowest concentration that inhibits growth of the organism. Broadly, the IC50 is the concentration that gives 50% inhibition.
